Source: patent US9249098B2 (priority 2012, dated 2016)
Read-outs that look alike come from different tables or passages of the source.

Tests used:
in vivo [1] = conditions: male, Sprague-Dawley, plasma, rat, read-out: T½ (terminal half life) (converted)
[2] = target: T1, acetylcholinesterase (AChE) (Electrophorus electricus, UniProt O42275); experiment: biochemical; conditions: room temperature, pH 8, acetylthiocholine iodide substrate; read-out: IC50, inhibition of AChE enzyme activity
T1 construct: purchased Sigma C2888
T1 sequence (O42275 24-633): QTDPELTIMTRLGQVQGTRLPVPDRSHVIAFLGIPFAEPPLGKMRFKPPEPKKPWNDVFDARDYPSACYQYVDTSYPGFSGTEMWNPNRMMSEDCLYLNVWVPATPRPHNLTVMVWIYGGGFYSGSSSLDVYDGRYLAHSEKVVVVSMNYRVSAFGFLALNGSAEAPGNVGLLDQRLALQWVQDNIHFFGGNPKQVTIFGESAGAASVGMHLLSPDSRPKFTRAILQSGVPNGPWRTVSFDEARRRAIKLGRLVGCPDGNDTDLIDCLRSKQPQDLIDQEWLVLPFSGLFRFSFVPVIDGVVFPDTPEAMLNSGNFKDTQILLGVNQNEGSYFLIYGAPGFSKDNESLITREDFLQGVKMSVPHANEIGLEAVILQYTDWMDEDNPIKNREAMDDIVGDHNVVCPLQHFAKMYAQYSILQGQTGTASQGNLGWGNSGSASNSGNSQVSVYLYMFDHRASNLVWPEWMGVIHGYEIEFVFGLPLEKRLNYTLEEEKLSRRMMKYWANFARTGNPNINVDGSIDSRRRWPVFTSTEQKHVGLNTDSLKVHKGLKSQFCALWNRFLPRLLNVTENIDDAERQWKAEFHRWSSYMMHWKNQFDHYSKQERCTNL
Procedure: Enzymatic assay. […] The purified/synthesized compounds or compound mixtures were tested. Assay kit was from Invitrogen. AChE enzyme was from Sigma or prepared from human erythrocyte. Acetylcholine and other reagents and buffers were from Sigma. The assay solution consisted of 0.1 M phosphate buffer pH 8, 0.5 mM 5,5′-dithiobis (2-nitrobenzoic acid) (DTNB, Ellman's reagent), 0.01 unit acetylcholinesterase (Sigma Cat. No. C2888), and 0.5 mM acetylthiocholine iodide (ATCI) as the substrate. Test compounds were added to the assay solution and pre-incubated with the enzyme for 5 min at room temperature before addition of the substrate. […] Duplicate sampling was made for each sample. Test compound inhibition to enzyme activity was calculated relative to the positive control without presence of test compound. Negative controls were samples without enzyme.
Experimental procedures were described in the embodiments of this invention.

in vivo [3] = conditions: male, Sprague-Dawley, plasma, rat
Procedure: Pharmacokinetics (PK) measurement. […] A total of 6 male experimental SD rats, approximately 8 weeks of age (180-250 g body weight) were used. For intravenous bolus injection (IV), the animals were placed in a polycarbonate restraint device and dosed via the tail vein. For oral dose (PO), the animals were dosed via oral gavage. […] The plasma samples were extracted by protein precipitation using 4 volume of CH3CN containing fixed concentration of internal standard compound (IS). The concentrations of analyte in plasma were determined using a high performance liquid chromatography/mass spectrometry (HPLC/MS/MS) method (Shimadzu LC-10ADVP and a Leap autosampler, Thermo Hypersil C18, 50 mm×2.1 mm, Mobile phase A: 0.1% formic acid; B: MeCN, Elution rate: 500 μL/min, Column temperature: 25° C., Injection volume: 10 μL, reverse phase elution from 10% organic to 90% organic in 5 min, Applied Biosystems API3000 triple-quadrupole instrument with a Turbo Ions Spray interface). The data acquisition and data processing were done using Analyst 1.4 software.
Experimental animal used were male Sprague-Dawley rats from Shanghai Sino-British SIPPR/BK Lab Animal Ltd, approximately 8 weeks of age (180-250 g body weight).

[4] = Acute toxicity in mice (LD50); conditions: both sexes, mouse, in vivo; CD-1 mice, dosed orally (PO), 7-day acute toxicity
Procedure: Animal toxicological tests. 7-day acute toxicity evaluation was done for selected compounds of this invention on mice and rats. Male and female CD-1 mice (25-30 grams) or SD rats (150-240 grams) were used. The animals were acclimated for 1 week prior to the experiment. The test compounds were dissolved in saline and were dosed orally (PO). Five groups (3 doses plus 1 vehicle and 1 naïve) and 10 mice per group (half male and half female) were used for each compound. All animals were fasted overnight before study. After dosing, animals were placed individually in soft-bedding cages without cage covers. Animal behavioral changes were continuously monitored for 4 hours including autonomic abnormalities (salivation, lacrimation, piloerection, yawning, palpebral closures), neuromuscular abnormalities (posture, gait, fasciculation, convulsions), stereotypical behaviors (sleep, alert, hyper/hypo-activity, slow patterned, fast patterned, restricted, dyskinetic-reactive signs etc.) and lethality. Observations for general health, mortality and moribundity were conducted twice daily after 24 hours. All animals surviving the 7-day observation period were sacrificed by carbon dioxide asphyxiation. Gross necropsies were performed on all animals sacrificed including examinations of main organs and tissue (lung, liver, kidney, heart, intestine, brain).
Acute toxicity for selected compounds of this invention was measured in mice according to the procedure illustrated in the embodiments. Male and female CD-1 mice (n=2-5/gender/compound dose, 25-32 grams) were from Shanghai Sino-British SIPPR/BK Lab Animal Ltd. Table 4 lists toxicology study observations for selected compounds.

[5] = IV (intravenous), read-out: F (bioavailability)
[6] = PO (oral), read-out: F (oral bioavailability)
[7] = SC (subcutaneous), read-out: F (bioavailability)

## COc1cc2c(cc1OC)C(=O)C(F)(CC1(F)CCN(Cc3ccc(F)cc3)CC1)C2 (stereo not drawn) [IV-11, 2-fluoro-2-((4-fluoro-1-(4-fluorobenzyl)piperidin-4-yl)methyl)-5,6-dimethoxy-2,3-dihydro-1H-inden-1-one]
In vivo [1]; IV (intravenous)
  half-life: 3.1 h
In vivo [1]; PO (oral)
  half-life: 11.8 h
In vivo [1]; SC (subcutaneous)
  half-life: 7.9 h
[2]
  IC50: 28.2 nM
In vivo [3]; [5]
  bioavailability: 100%
In vivo [3]; [6]
  bioavailability: 28.2%
In vivo [3]; [7]
  bioavailability: 100%
[4]
  LD50 at 7 day: > 50 mg/kg

## COc1cc2c(cc1OC)C(=O)C(CC1(F)CCN(Cc3ccccc3)CC1)C2 (stereo not drawn) [IV-4, 2-((1-benzyl-4-fluoropiperidin-4-yl)methyl)-5,6-dimethoxy-2,3-dihydro-1H-inden-1-one]
[2]
  IC50: 1.04 nM
[4]
  LD50 at 7 day: 30 mg/kg

## COc1cc2c(cc1OC)C(=O)C(F)(CC1(F)CCN(Cc3ccccc3)CC1)C2 (stereo not drawn) [IV-8, 2-((1-benzyl-4-fluoropiperidin-4-yl)methyl)-2-fluoro-5,6-dimethoxy-2,3-dihydro-1H-inden-1-one]
In vivo [1]; IV (intravenous)
  half-life: 8.5 h
In vivo [1]; PO (oral)
  half-life: 12.7 h
In vivo [1]; SC (subcutaneous)
  half-life: 6.8 h
[2]
  IC50: 9.07 nM
In vivo [3]; [5]
  bioavailability: 100%
In vivo [3]; [6]
  bioavailability: 37.2%
In vivo [3]; [7]
  bioavailability: 70.5%
[4]
  LD50 at 7 day: > 45 mg/kg
